In US10709706B2, “Nuclear transport modulators and uses thereof” (Karyopharm Therapeutics Inc., priority 2015, dated 2020):

Assays:
Format in all cases: cell-based
MM1S cells = experiment: MTT cell proliferation assay, MM1S cells; details: Homo sapiens, MM1.S, MM1S multiple myeloma cells, approximately 64-72 hours, 1 nM to 30 μM
Protocol: (§1) The MTT cell proliferation assay was used to study the cytotoxic properties of the compounds. The assay was performed according to the method described by Roche Molecular Biochemicals, with minor modifications. The assay is based on the cleavage of the tetrazolium salt, MTT, in the presence of an electron-coupling reagent. The water-insoluble formazan salt produced must be solubilized in an additional step. Cells grown in a 96-well tissue culture plate were incubated with the MTT solution for approximately 4 hours. After this incubation period, a water-insoluble formazan dye formed. After solubilization, the formazan dye was quantitated using a scanning multi-well spectrophotometer (ELISA reader). […] The cells were seeded at 5,000-10,000 cells in each well of 96-well plate in 100 μL of fresh culture medium and were allowed to attach overnight. The stock solutions of the compounds were diluted in 100 μL cell culture medium to obtain eight concentrations of each test compound, ranging from 1 nM to 30 μM. […] All optical densities were measured at 490 nm using a Vmax Kinetic Microplate Reader (Molecular Devices). In most cases, the assay was performed in duplicate and the results were presented as a mean percent inhibition to the negative control±SE. The following formula was used to calculate the percent of inhibition: Inhibition (%)=(1−(ODo/OD))×100.
(§2) The compounds were tested against Z138, MM1S and 3T3 cells. The Z138 cell line is a mature B-cell acute lymphoblastic leukemia cell line derived from a patient with chronic lymphocytic leukemia. The MM1S cell line was established from the peripheral blood of a human multiple myeloma patient. 3T3 cells are standard fibroblast cells; they were originally isolated from Swiss mouse embryo tissue.

Z138 cells = experiment: MTT cell proliferation assay, Z138 cells; details: Homo sapiens, Z-138, approximately 64-72 hours, 1 nM to 30 μM
Protocol: as §1, §2

3T3 cells = experiment: MTT cell proliferation assay, 3T3 cells; details: Mus musculus, NIH3T3, 3T3 fibroblast cells, approximately 64-72 hours, 1 nM to 30 μM
Protocol: as §1, §2

Row | IC50 (MM1S cells) | SMILES | IC50 (Z138 cells) | IC50 (3T3 cells)
1 | 0.1 to 5 µM | NC(=O)/C(=C/c1ccnc(-c2cc(C(F)(F)F)cc(C(F)(F)F)c2)n1)c1cc(F)nc(F)c1 [Compound 152, (E)-3-(2-(3,5-bis(trifluoromethyl)phenyl)pyrimidin-4-yl)-2-(2,6-difluoropyridin-4-yl)acrylamide] | 0.1 to 5 µM | > 30 µM
2 | > 30 µM | NC(=O)/C(=C/c1ccnc(-c2cc(C(F)(F)F)cc(C(F)(F)F)c2)n1)c1ccc(S(=O)(=O)N2CCCCC2)cc1 [Compound 156, (E)-3-(2-(3,5-bis(trifluoromethyl)phenyl)pyrimidin-4-yl)-2-(4-(piperidin-1-ylsulfonyl)phenyl)acrylamide] | > 30 µM | > 30 µM
3 | 0.1 to 5 µM | CC1(C)CN(S(=O)(=O)c2cccc(/C(=C\c3ccnc(-c4cc(C(F)(F)F)cc(C(F)(F)F)c4)n3)C(N)=O)c2)CCO1 [Compound 164, (E)-3-(2-(3,5-bis(trifluoromethyl)phenyl)pyrimidin-4-yl)-2-(3-((2,2-dimethylmorpholino)sulfonyl)phenyl)acrylamide] | > 30 µM | > 30 µM
4 | > 30 µM | NC(=O)/C(=C/c1ccnc(-c2cc(C(F)(F)F)cc(C(F)(F)F)c2)n1)c1cccc(S(=O)(=O)N2CCCCC2)c1 [Compound 167, (E)-3-(2-(3,5-bis(trifluoromethyl)phenyl)pyrimidin-4-yl)-2-(3-(piperidin-1-ylsulfonyl)phenyl)acrylamide] | > 30 µM | > 30 µM
5 | > 30 µM | CS(=O)(=O)c1ccc(/C(=C\c2ccnc(-c3cc(C(F)(F)F)cc(C(F)(F)F)c3)n2)C(N)=O)cc1 [Compound 127, (E)-3-(2-(3,5-bis(trifluoromethyl)phenyl)pyrimidin-4-yl)-2-(4-(methylsulfonyl)phenyl)acrylamide] | > 30 µM | > 30 µM
6 | > 30 µM | Cc1noc(C)c1/C(=C\c1ccnc(-c2cc(C(F)(F)F)cc(C(F)(F)F)c2)n1)C(N)=O [Compound 124, (E)-3-(2-(3,5-bis(trifluoromethyl)phenyl)pyrimidin-4-yl)-2-(3,5-dimethylisoxazol-4-yl)acrylamide] | > 30 µM | > 30 µM
7 | < 0.1 µM | N#Cc1ccc(/C(=C\c2ccnc(-c3cc(C(F)(F)F)cc(C(F)(F)F)c3)n2)C(N)=O)s1 [Compound 135, (Z)-3-(2-(3,5-bis(trifluoromethyl)phenyl)pyrimidin-4-yl)-2-(5-cyanothiophen-2-yl)acrylamide] | 0.1 to 5 µM | 5 to 30 µM
8 | 5 to 30 µM | NC(=O)/C(=C/c1ccnc(-c2cc(C(F)(F)F)cc(C(F)(F)F)c2)n1)c1ccc(S(=O)(=O)N2CC(F)(F)C2)cc1 [Compound 130, (E)-3-(2-(3,5-bis(trifluoromethyl)phenyl)pyrimidin-4-yl)-2-(4-((3,3-difluoroazetidin-1-yl)sulfonyl)phenyl)acrylamide] | > 30 µM | > 30 µM
9 | 5 to 30 µM | NC(=O)/C(=C/c1ccnc(-c2cc(C(F)(F)F)cc(C(F)(F)F)c2)n1)c1ccc(S(=O)(=O)N2CCC(F)(F)CC2)cc1 [Compound 159, (E)-3-(2-(3,5-bis(trifluoromethyl)phenyl)pyrimidin-4-yl)-2-(4-((4,4-difluoropiperidin-1-yl)sulfonyl)phenyl)acrylamide] | 0.1 to 5 µM | > 30 µM
10 | > 30 µM | NC(=O)/C(=C/c1nccc(-c2cc(C(F)(F)F)cc(C(F)(F)F)c2)n1)c1cncnc1 [Compound 113, (E)-3-(4-(3,5-bis(trifluoromethyl)phenyl)pyrimidin-2-yl)-2-(pyrimidin-5-yl)acrylamide] | > 30 µM | > 30 µM
11 | 5 to 30 µM | NC(=O)/C(=C/c1ccnc(-c2cc(C(F)(F)F)cc(C(F)(F)F)c2)n1)c1ccc(S(=O)(=O)NC2CC2)cc1 [Compound 128, (E)-3-(2-(3,5-bis(trifluoromethyl)phenyl)pyrimidin-4-yl)-2-(4-(N-cyclopropylsulfamoyl)phenyl)acrylamide] | 5 to 30 µM | > 30 µM
12 | 0.1 to 5 µM | NC(=O)/C(=C/c1ccnc(-c2cc(C(F)(F)F)cc(C(F)(F)F)c2)n1)c1ccc(Cl)c(Cl)c1 [Compound 153, (E)-3-(2-(3,5-bis(trifluoromethyl)phenyl)pyrimidin-4-yl)-2-(3,4-dichlorophenyl)acrylamide] | > 30 µM | > 30 µM
13 | 0.1 to 5 µM | NC(=O)/C(=C/c1ccnc(-c2cc(C(F)(F)F)cc(C(F)(F)F)c2)n1)c1cccc(F)n1 [Compound 150, (E)-3-(2-(3,5-bis(trifluoromethyl)phenyl)pyrimidin-4-yl)-2-(6-fluoropyridin-2-yl)acrylamide] | 0.1 to 5 µM | > 30 µM
14 | 0.1 to 5 µM | CCOC(=O)C(Br)C(Br)c1ccnc(-c2cc(C(F)(F)F)cc(C(F)(F)F)c2)n1 (stereo not drawn) [Compound 106, ethyl 3-(2-(3,5-bis(trifluoromethyl)phenyl)pyrimidin-4-yl)-2,3-dibromopropanoate] | 0.1 to 5 µM | > 30 µM
15 | 0.1 to 5 µM | NC(=O)/C(=C/c1ccnc(-c2cc(C(F)(F)F)cc(C(F)(F)F)c2)n1)c1cc2ccccc2o1 [Compound 136, (E)-2-(benzofuran-2-yl)-3-(2-(3,5-bis(trifluoromethyl)phenyl)pyrimidin-4-yl)acrylamide] | 0.1 to 5 µM | 5 to 30 µM
16 | 0.1 to 5 µM | NC(=O)/C(=C/c1ccnc(-c2cc(C(F)(F)F)cc(C(F)(F)F)c2)n1)c1cnc(Cl)nc1 [Compound 149, (E)-3-(2-(3,5-bis(trifluoromethyl)phenyl)pyrimidin-4-yl)-2-(2-chloropyrimidin-5-yl)acrylamide] | 0.1 to 5 µM | > 30 µM
17 | 5 to 30 µM | NC(=O)/C(=C/c1ccnc(-c2cc(C(F)(F)F)cc(C(F)(F)F)c2)n1)c1ccc(S(=O)(=O)C2CC2)cc1 [Compound 122, (E)-3-(2-(3,5-bis(trifluoromethyl)phenyl)pyrimidin-4-yl)-2-(4-(cyclopropylsulfonyl)phenyl)acrylamide] | 0.1 to 5 µM | > 30 µM
18 | 5 to 30 µM | NC(=O)/C(=C/c1ccnc(-c2cc(C(F)(F)F)cc(C(F)(F)F)c2)n1)c1ccc(S(=O)(=O)N2CCCC2)cc1 [Compound 155, (E)-3-(2-(3,5-bis(trifluoromethyl)phenyl)pyrimidin-4-yl)-2-(4-(pyrrolidin-1-ylsulfonyl)phenyl)acrylamide] | > 30 µM | > 30 µM
19 | > 30 µM | NC(=O)/C(=C/c1ccnc(-c2cc(C(F)(F)F)cc(C(F)(F)F)c2)n1)c1cccc(S(=O)(=O)N2CCC2)c1 [Compound 166, (E)-2-(3-(azetidin-1-ylsulfonyl)phenyl)-3-(2-(3,5-bis(trifluoromethyl)phenyl)pyrimidin-4-yl)acrylamide] | > 30 µM | > 30 µM
20 | 0.1 to 5 µM | N#Cc1cncc(/C(=C\c2ccnc(-c3cc(C(F)(F)F)cc(C(F)(F)F)c3)n2)C(N)=O)c1 [Compound 119, (E)-3-(2-(3,5-bis(trifluoromethyl)phenyl)pyrimidin-4-yl)-2-(5-cyanopyridin-3-yl)acrylamide] | 0.1 to 5 µM | > 30 µM

Row | SMILES | IC50 (MM1S cells) | IC50 (Z138 cells) | IC50 (3T3 cells)
21 | NC(=O)/C(=C/c1ccnc(-c2cc(C(F)(F)F)cc(C(F)(F)F)c2)n1)c1cncnc1 [Compound 112, (E)-3-(2-(3,5-bis(trifluoromethyl)phenyl)pyrimidin-4-yl)-2-(pyrimidin-5-yl)acrylamide] | 0.1 to 5 µM | 0.1 to 5 µM | > 30 µM
